Columns and labels:
[1] = tested on: Hamster Tracheal Organ Culture (keratinization); assay: tracheal organ culture assay (reversal of keratinization in hamster tracheal organ culture); type: cell-based; conditions: for Reversal of Keratinization in Hamster Tracheal Organ Culture, Active/Total Cultures: active = neither keratin nor keratohyaline granules seen, or keratohyaline granules alone absent; for Reversal of Keratinization in Hamster Tracheal Organ Culture, Active/Total Cultures (%): percent of active cultures
Method: (§1) The ODC assay measures a compound's ability to prevent the induction of ODC. The tracheal organ culture assay measures a compound's ability to reverse keratinization.
The tracheal organ culture assay is carried out as follows. Tracheas are taken from hamsters that are in very early stages of vitamin A deficiency and placed in organ culture. At the time of culture, the animals are still gaining weight; the tracheal epithelium is generally low columnar or cuboidal, with only occasional patches of squamous metaplasia. Each trachea is opened from the larynx to the carina along the membranous dorsal wall and cultured in a serum-free medium (CMRL-1066; with crystalline bovine insulin, 0.1 μg/ml; hydrocortisone hemisuccinate, 0.1 μg/ml; glutamine, 2 mM; penicillin, 100 units/ml; and streptomycin,100 μg/ml, added). Cultures are gassed with 50% oxygen, 45% nitrogen, and 5% CO2. The culture dishes are rocked at 35.5-36.0 degrees to allow the tracheas contact with both gas and medium. All tracheas are grown in medium containing no retinoid for the first 3 days. At the end of 3 days, some tracheas are harvested; almost all of these tracheas have significant squamous metaplasia, and approximately 60% have keratinized lesions. The remaining tracheas are then divided into different groups which are treated with either: (1) retinoid dissolved in dimethylsulfoxide (final concentration of DMSO in culture medium is never greater than 0.1%) or (2) an equivalent amount of DMSO alone. Culture medium is changed three times a week, and all of the remaining tracheas are harvested at the end of 10 days in culture. Tracheas are fixed in 10% buffered formalin and embedded in paraffin. Cross sections of five micrometers are made through the mid-portion, stained with hematoxylin and eosin, and then scored with a microscope for the presence of keratin and keratohyaline granules, both of which are found in approximately 90% of control cultures that received no retinoid for the entire 10 day culture period.

Ornithine Decarboxylase = assay: ornithine decarboxylase (ODC) assay: inhibition of induction of ODC by 12-O-tetradecanoylphorbol-13-acetate in mouse skin; type: in vivo, mouse (female Charles River CD-1); conditions: topical, 1 hour before TPA (17 nmol)
Method: as §1
The ODC assay is carried out as follows. Female Charles River CD-1 mice from Charles River Breeding Laboratories, Wilmington, Massachusetts, are used (age 7 to 9 weeks). The dorsal hair of the mice is shaved 1 to 2 days before testing, and only mice showing no hair regrowth are used. A single dose of 12-O-tetradecanoylphorbol-13-acetate (TPA) (10.5 μg, 17 nmol) in 0.2 mL of acetone is applied topically to the back of each mouse. The test compound, at one of three dose levels (1.7, 17 and 170 nmol), dissolved in 0.2 mL of acetone is applied 1 hour before the TPA treatment to the test groups; the control group is treated with acetone alone. The mice are killed by cervical dislocation five hours after TPA treatment. Determinations are done in triplicate.
The epidermis is obtained from the sacrificed animals. To obtain sufficient material, the dorsal skins from 2 to 3 mice in each treatment group are pooled. The depilatory agent Nudit® (Helena Rubinstein, New York) is applied to the shaved area of the skin; after 5 minutes, it is washed off thoroughly with cold tap water. Then the skin is excised and plunged immediately into ice-cold water; it is then placed in a 55° C. water bath for 30 seconds and reimmersed in ice-cold water for at least another 30 seconds. The skin is placed epidermis side up on a cold plate, and the epidermis is scraped off with a razor blade. The pooled epidermal sheets are homogenized (Polytron PT-10 homogenizer) at 0° to 4° C. for 15-20 seconds in 50 mM sodium phosphate and 0.1 mM ethylenediaminetetraacetic acid (EDTA), at a volume of 1 mL/skin.
The supernatant fraction remaining after centrifugation of the homogenate at 10,000× g for 30 seconds at 0° C. is used for the enzyme assay. Enzyme activity is determined using the microassay for ODC as described by Verma and Boutwell to measure the release of ^14 CO2 from DL-[1-^14 C]-ornithine (58 mCi/mmol) after incubation with the 10,000× g supernatant. The incubations are carried out by decanting, with a Pasteur pipette, 100 μL of the supernatant containing 100 to 120 μg of protein into two or three 15-mL Corex tubes in a shaking water bath at 37° C. The assay mixture in the tubes consists of 50 μL of 100 mM sodium phosphate buffer (pH 7.2), 10 μL of 4 mM pyridoxal phosphate, 40 μL of 25 mM dithiothreitol, and 1 μL of 0.1 M EDTA. The center wells in the tubes are filled with 200 μL of a 2:1 solution (v/v) of ethanolamine:2-methoxyethanol. The reaction is started by adding 50 μL of substrate (0.5 μCi of DL-[1-^14 C]-ornithine in 2 mM cold ornithine) at 1-minute intervals by injection to each of the stoppered tubes. Incubations are routinely carried out at 37° C. for 30 to 60 minutes. The reaction is stopped by addition of 0.5 ml of 2 M citric acid, and incubation is continued for an additional hour without heating to ensure complete absorption of ^14 CO2.
Radioactivity is measured using a toluene-based scintillant (4 g of PPO and 50 mg of POPOP/L of toluene) in a Beckman LS-250 liquid scintillation counter. Enzyme activity is determined in triplicate and expressed as nanomoles of CO2 released in 30 minutes per milligram of protein. Enzyme activity is linear for the protein concentration used. The protein concentrations of the epidermal extracts are determined by the Lowry procedure, using bovine serum albumin as the standard.

SMILES	Reversal of Keratinization in Hamster Tracheal Organ Culture, Active/Total Cultures ([1]; Conc 10^-8 M)	Reversal of Keratinization in Hamster Tracheal Organ Culture, Active/Total Cultures (%) ([1]; Conc 10^-8 M)	Reversal of Keratinization in Hamster Tracheal Organ Culture, Active/Total Cultures ([1]; Conc 10^-9 M)	Reversal of Keratinization in Hamster Tracheal Organ Culture, Active/Total Cultures (%) ([1]; Conc 10^-9 M)	Reversal of Keratinization in Hamster Tracheal Organ Culture, Active/Total Cultures ([1]; Conc 10^-10 M)	Reversal of Keratinization in Hamster Tracheal Organ Culture, Active/Total Cultures (%) ([1]; Conc 10^-10 M)	Inhibition of Induction of Ornithine Decarboxylase by 12-O-Tetradecanoylphorbol-13-acetate in Mouse Skin, % Inhibition of Control (Ornithine Decarboxylase; Dose 1.7 nmol)	Inhibition of Induction of Ornithine Decarboxylase by 12-O-Tetradecanoylphorbol-13-acetate in Mouse Skin, % Inhibition of Control (Ornithine Decarboxylase; Dose 17 nmol)
CCOC(=O)c1ccc(/C=C(C)/C=C/C2=C(C)CCCC2(C)C)c(F)c1 [Example 5, (E)-1-(4-Carbethoxy-2-fluorophenyl)-2-methyl-4-(2,6,6-trimethyl-1-cyclohexen-1-yl)-1,3-butadiene]	6/6	100%	6/7	86%	4/7	56%	8%	46%
CCOC(=O)c1ccc(/C(F)=C(C)/C=C/C2=C(C)CCCC2(C)C)cc1 [Example 1, (1Z,3E)-1-(4-carbethoxyphenyl)-1-fluoro-2-methyl-4-(2,6,6-trimethyl-1-cyclohexen-1-yl)-1,3-butadiene]	11/12	92%	10/12	83%	6/13	46%	56%	82%
CCOC(=O)c1ccc(/C=C(C)/C=C/C2=C(C)CCCC2(C)C)c(OC)c1 [Example 3, (E)-1-(4-carbethoxy-2-methoxyphenyl)-2-methyl-4-(2,6,6-trimethyl-1-cyclohexen-1-yl)-1,3-butadiene]	7/7	100%	5/7	71%	4/7	57%	21%	39%
CC1=C(/C=C/C(C)=C/c2ccc(C(=O)O)cc2F)C(C)(C)CCC1 [Example 6, (E)-1-(4-Carboxy-2-fluorophenyl)-2-methyl-4-(2,6,6-trimethyl-1-cyclohexen-1-yl)-1,3-butadiene]	6/6	100%	12/12	100%	3/11	27%	37%	78%
CC1=C(/C=C/C(C)=C(\F)c2ccc(C(=O)O)cc2)C(C)(C)CCC1 [Example 2, (1Z,3E)-1-(4-Carboxyphenyl)-1-fluoro-2-methyl-4-(2,6,6-trimethyl-1-cyclohexen-1-yl)-1,3-butadiene]	13/13	100%	12/13	92%	5/13	38%	70%	80%

From US4532343A, “Aromatic retinoic acid analogues” (SRI International, priority 1982, dated 1985)
